Key:
Test in all cases: relative viability (nuclei count vs DMSO), 5 days (fraction); higher = more cells survive
Motesanib + Palbociclib = compound: CC1(C)CNc2cc(NC(=O)c3cccnc3NCc3ccncc3)ccc21 [Motesanib] + CC(=O)c1c(C)c2cnc(Nc3ccc(N4CCNCC4)cn3)nc2n(C2CCCC2)c1=O [Palbociclib] (partner 0.5 µM)
How it was run: (§1)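 Cells from lung cancer lines were seeded into 1536-well plates and, one day later, dosed by pin tool. Treatments were either a single drug or a fixed dose of an anchor drug with five library-drug doses (not always all listed) in √10 steps. After 5 days, nuclei were stained in a one-step fixation (final 0.05% Triton X-100, 1% formaldehyde, 1 ug/ml Hoechst) and counted on 4× images, and relative viability is the treated-to-vehicle nuclei ratio, as the median of duplicate plates.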

Motesanib + Trametinib = compound: CC1(C)CNc2cc(NC(=O)c3cccnc3NCc3ccncc3)ccc21 [Motesanib] + CC(=O)Nc1cccc(-n2c(=O)n(C3CC3)c(=O)c3c(Nc4ccc(I)cc4F)n(C)c(=O)c(C)c32)c1 [Trametinib] (partner 0.02 µM)
How it was run: as §1

Motesanib + Linsitinib = compound: CC1(C)CNc2cc(NC(=O)c3cccnc3NCc3ccncc3)ccc21 [Motesanib] + C[C@]1(O)C[C@@H](c2nc(-c3ccc4ccc(-c5ccccc5)nc4c3)c3c(N)nccn32)C1 [Linsitinib] (partner 1 µM)
How it was run: as §1

Motesanib + Navitoclax = compound: CC1(C)CNc2cc(NC(=O)c3cccnc3NCc3ccncc3)ccc21 [Motesanib] + CC1(C)CCC(c2ccc(Cl)cc2)=C(CN2CCN(c3ccc(C(=O)NS(=O)(=O)c4ccc(N[C@H](CCN5CCOCC5)CSc5ccccc5)c(S(=O)(=O)C(F)(F)F)c4)cc3)CC2)C1 [Navitoclax] (partner 0.5 µM)
How it was run: as §1

Cell Line	relative viability (Motesanib + Palbociclib; first compound 0.1 µM)	relative viability (Motesanib + Palbociclib; first compound 0.3162 µM)	relative viability (Motesanib + Palbociclib; first compound 1 µM)	relative viability (Motesanib + Trametinib; first compound 0.1 µM)	relative viability (Motesanib + Trametinib; first compound 0.3162 µM)	relative viability (Motesanib + Trametinib; first compound 1 µM)	relative viability (Motesanib + Linsitinib; first compound 0.01 µM)	relative viability (Motesanib + Linsitinib; first compound 0.03162 µM)	relative viability (Motesanib + Linsitinib; first compound 0.1 µM)	relative viability (Motesanib + Linsitinib; first compound 0.3162 µM)	relative viability (Motesanib + Linsitinib; first compound 1 µM)	relative viability (Motesanib + Navitoclax; first compound 0.01 µM)	relative viability (Motesanib + Navitoclax; first compound 0.03162 µM)	relative viability (Motesanib + Navitoclax; first compound 0.1 µM)	relative viability (Motesanib + Navitoclax; first compound 0.3162 µM)	relative viability (Motesanib + Navitoclax; first compound 1 µM)	relative viability (Motesanib + Palbociclib; first compound 0.01 µM)	relative viability (Motesanib + Palbociclib; first compound 0.03162 µM)	relative viability (Motesanib + Trametinib; first compound 0.01 µM)	relative viability (Motesanib + Trametinib; first compound 0.03162 µM)
NCI-H2087	0.26	0.232	0.26	0.199	0.182	0.182	0.885	1.03	1.16	0.998	1.1	0.92	1.14	0.997	0.902	1.03				
NCI-H2126	0.341	0.347	0.412	0.579	0.543	0.547	0.736	0.73	0.719	0.74	0.701	0.821	0.84	0.874	0.878	0.813	0.333	0.35	0.58	0.579
NCI-H2228	0.589	0.937	0.613	0.459	0.505	0.466	0.685	0.544	0.689	0.5	0.509	1.13	0.913	0.632	1.04	1.12	0.664	0.8	0.395	0.764
NCI-H2347	0.404	0.469	0.437	0.292	0.245	0.278	0.985	1.01	1.06	1	1	0.816	0.751	0.712	0.882	1.02	0.452	0.428	0.264	0.3
NCI-H2405	0.535	0.562	0.52	0.625	0.684	0.704		1	0.866	0.967	0.993		0.863	0.856	0.892	0.965	0.511	0.499	0.53	0.603
NCI-H3122	0.213	0.217	0.161	0.229	0.211	0.197	0.986	0.961	0.991	1.01	0.965	0.937	1.04	0.981	1.06	1.04	0.186	0.194	0.218	0.227
PC-3 [JPC-3]	0.568	0.605	0.559	0.795	0.779	0.703	1.05	0.969	0.946	1.04	0.944	0.83	0.883	0.802	0.779	0.827	0.558	0.544	0.745	0.676
PC-14	0.539	0.512	0.593	0.817	0.79	0.93	1.01	0.97	1.02	0.997	0.97	1.03	1.06	1	1.06	1.05	0.465	0.539	0.809	0.8
RERF-LC-KJ	1.18	1.12	1.19	0.805	0.845	0.909	0.864	0.926	0.857	0.919	0.844	0.705	1.01	1.29	0.811	0.877	1.11	0.968	0.88	0.875
SK-LU-1	0.44	0.409	0.401	0.476	0.536	0.544	1.14	1.01	1.2	1.1	1.32	0.611	0.695	0.925	0.919	1.13	0.386	0.438	0.424	0.591
SK-MES-1	0.316	0.331	0.351	0.593	0.565	0.617	1.06	1.09	1.1	1.08	1.08	1.13	1.15	1.23	1.24	1.21	0.322	0.319	0.575	0.587
SW 1573	0.498	0.38	0.444	0.721	0.593	0.628	0.815	0.825	0.65	0.773	0.949	0.902	0.994	0.824	1.1	1.06	0.321	0.385	0.613	0.503
UMC-11	0.314	0.394	0.347	0.611	0.744	0.762	0.984	0.985	1.04	1	1.13	0.341	0.312	0.31	0.302	0.318	0.317	0.302	0.659	0.94
